Read-outs that look alike come from different tables or passages of the source.
What was measured:
[1] = Stability of compounds in rat whole blood (Example 35); format: in vitro ADME; conditions: 5 μM, 37° C., 2 hours, FIG. 3
Description: This study was performed to evaluate the stability of the title compounds in rat whole blood. Because the ketone (or keto-compound; either pentoxifylline or 409) and its corresponding M-1 alcohol metabolite interconvert, levels of these components were measured after either the keto-compound was added to the blood or the M-1 was added. In other words, in some tests the keto-compound was the starting test compound and in other tests an M-1 metabolite was the starting test compound.
Fresh rat whole blood was obtained from ViviSource Laboratories, Waltham, Mass. Stock solutions (7.5 millimolar (mM)) of test compounds were prepared in dimethyl sulfoxide (DMSO). The 7.5 mM stock solutions were diluted to 500 micromolar (μM) in acetonitrile (ACN). To 990 microliters (μL) of blood pre-warmed to 37° C. for 7 minutes was added 10 μl, of 500 μM test compound to a final concentration of 5 μM. The test compounds were pentoxifylline, (S)-M1 metabolite of pentoxifylline, (R)-M1 metabolite of pentoxifylline, Compound 409, Compound 435(S), and Compound 435(R). The latter two test compounds are deuterated (S)-M1 and (R)-M1 metabolites, respectively, of Compound 409. The reaction mixture was incubated at 37° C. Aliquots (50 μL) were removed at 0 min, 5 min, 15 min, 30 min, 1 hour and 2 hours following the addition of test compound and added to 96-well plates containing 150 μL of ice cold acetonitrile with an internal standard to stop the reaction. The plates were stored at −20° C. for 20 minutes after which 100 μL of 50% acetonitrile/water was added to the wells of the plate prior to centrifugation to pellet precipitated proteins. A 200-μL aliquot of each supernatant was transferred to another 96-well plate and analyzed by LC-MS/MS using an Applied Bio-systems API 4000 mass spectrometer for amounts of the administered compound and its specific metabolite listed in Table 11 below.
The results of this study are depicted in FIGS. 2 and 3.

[2] = Compound stability in human liver microsomes (Example 36); format: in vitro ADME; conditions: 30 minutes
Description: Example 36 is similar to Example 35 in design, except that human liver microsomes were used instead of rat whole blood to study the metabolism of the compounds.
Human liver microsomes (20 mg/mL) were obtained from Xenotech, LLC (Lenexa, Kans.). β-nicotinamide adenine dinucleotide phosphate, reduced form (NADPH), magnesium chloride (MgCl2), and dimethyl sulfoxide (DMSO) were purchased from Sigma-Aldrich.
Stock solutions containing 7.5 mM of test compounds (pentoxifylline, (S)-M1 metabolite, (R)-M1 metabolite, Compound 409, Compound 435(S), and Compound 435(R)) were prepared in DMSO. The 7.5-mM stock solutions were diluted to 250 μM in acetonitrile (ACN). The human liver microsomes were diluted to 2.5 mg/mL in 0.1 M potassium phosphate buffer, pH 7.4, containing 3 mM MgCl2. The diluted microsomes were added to wells of a 96-well deep-well polypropylene plate in triplicate. 10 μL of the 250 μM test compound was added to the microsomes and the mixture was pre-warmed to 37° C. for 10 minutes. Reactions were initiated by addition of pre-warmed NADPH solution. The final reaction volume was 0.5 mL and contained 2.0 mg/mL human liver microsomes, 5 μM test compound, and 2 mM NADPH in 0.1M potassium phosphate buffer, pH 7.4, and 3 mM MgCl2. The reaction mixtures were incubated at 37° C., and 50-μL aliquots were removed at 0, 5, 10, 20, and 30 minutes and added to shallow-well 96-well plates which contained 50 μL of ice-cold acetonitrile with internal standard to stop the reactions. The plates were stored at 4° C. for 20 minutes after which 100 μL of water was added to the wells of the plate before centrifugation to pellet precipitated proteins. Supernatants were transferred to another 96-well plate and analyzed for the amount of the administered compound and its specific metabolite (listed in Table 11 above) by LC-MS/MS using an Applied Bio-systems API 4000 mass spectrometer.
The results of this study are depicted in FIGS. 4 and 5. […]

[3] = Pharmacokinetic study of 435(S) and other representative compounds in chimps after oral dosing (Example 40); format: in vivo; conditions: species named in label measured in plasma
Description: 435(S) and representative compounds 121(S), 137(S), 421(S) and 437(S) were separately dissolved in warm (65° C.) water at a concentration [[of 10 mg/mL]]. The same protocol described for Example 39 was then followed for each representative compound.

[4] = female, plasma, po, 65 mg, Table 17 i): female chimp, 435(S) and 121(S), read-out: AUC0-12 Female
[5] = female, plasma, po, 65 mg, Table 17 ii): female chimp, 435(S) and 137(S), read-out: AUC0-12 Female
[6] = female, plasma, po, 65 mg, Table 17 iii): female chimp, 435(S) and 421(S), read-out: AUC0-12 Female
[7] = female, plasma, po, 65 mg, Table 17 iv): female chimp, 435(S) and 437(S), read-out: AUC0-12 Female
[8] = male, plasma, po, 65 mg, Table 17 i): male chimp, 435(S) and 121(S), read-out: AUC0-12 Male
[9] = male, plasma, po, 65 mg, Table 17 ii): male chimp, 435(S) and 137(S), read-out: AUC0-12 Male
[10] = male, plasma, po, 65 mg, Table 17 iii): male chimp, 435(S) and 421(S), read-out: AUC0-12 Male
[11] = male, plasma, po, 65 mg, Table 17 iv): male chimp, 435(S) and 437(S), read-out: AUC0-12 Male

Row | SMILES | Keto-compound (pentoxifylline or Compound 409) formed from M-1 alcohol [1] | Keto-compound (pentoxifylline or Compound 409) formed from M-1 alcohol ([2]; human liver microsomes 2.0 mg/mL, 5 μM, NADPH, FIG. 5 columns C and D) | More pentoxifylline produced from (S)-M1 than Compound 409 produced from Compound 435 (S) ([2]; human liver microsomes) | AUC(0-t) [3, 4] | AUC(0-t) [3, 5] | AUC(0-t) [3, 6] | AUC(0-t) [3, 7] | AUC(0-t) [3, 8] | AUC(0-t) [3, 9] | AUC(0-t) [3, 10] | AUC(0-t) [3, 11]
1 | C[C@H](O)CCCCn1c(=O)c2c(ncn2C)n(C)c1=O [(S)-M1, reference compound] | appreciable amount of pentoxifylline present | significant amount of pentoxifylline present | Approximately 30% |  |  |  |  |  |  |  | 
2 | [2H]c1nc2c(c(=O)n(CCCC([2H])([2H])[C@@]([2H])(O)C([2H])([2H])[2H])c(=O)n2C)n1C([2H])([2H])[2H] [Compound 435(S), (S)-8-d1-1-(4,4,5,6,6,6-d6-5-Hydroxyhexyl)-3-methyl-7-(methyl-d3)-1H-purine-2,6(3H,7H)-dione] | not detected |  |  | 133 ng·h/mL | 243 ng·h/mL | 947 ng·h/mL | 1140 ng·h/mL | 354 ng·h/mL | 100 ng·h/mL | 881 ng·h/mL | 686 ng·h/mL
3 | [2H]c1nc2c(c(=O)n(CCCC(=O)O)c(=O)n2C)n1C([2H])([2H])[2H] [Deuterated M5 (M5a)] |  |  |  | 670 ng·h/mL | 754 ng·h/mL | 376 ng·h/mL | 306 ng·h/mL | 585 ng·h/mL | 719 ng·h/mL | 500 ng·h/mL | 562 ng·h/mL

— US8263601B2, “Deuterium substituted xanthine derivatives” (CoNCERT Pharmaceuticals, Inc., priority 2009, dated 2012)
